The results in this text go back to ChEMBL document CHEMBL1201862, “PubChem BioAssay data set” (2004).

Assay in all cases: growth of human tumour cells (NCI), 48 h
The subject of assay [1] is A498.
The subject of assay [2] is HOP-92.
Assay [3] relates to IGROV-1.
In assay [4] the test system is SF-268.
Assay [5] has as its system NCI/ADR-RES.
Assay [6] has as its system OVCAR-5.
For assay [7], the system named is SF-539.
For assay [8], the system named is OVCAR-3.
Assay [9] has as its system M14.
For assay [10], the system named is HT-29.
Assay [11] has as its system SNB-75.
Assay [12] deals with HCT-116.
For assay [13], the system named is OVCAR-4.
Assay [14] deals with LOX IMVI.
The subject of assay [15] is SN12C.
For assay [16], the system named is U-251.
Assay [17] concerns HL-60.
Assay [18] has as its system RXF 393.
Assay [19] concerns UACC-62.

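Step 1: Grow cells in 96-well plates. Step 2: Expose to compound for 48 hours at 5 concentrations. Step 3: Interpolate endpoints linearly; if unreached, use highest concentration. The concentration for 50% growth inhibition is given as GI50.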 The source made the active and inactive calls. Rule as the data show it: active = GI50 up to about 1.1 µM and inactive = higher.

In the case of `NC1(P(=O)(O)O)CCCCC1`, the GI50 in assay [1], in assay [2], in assay [3], in [4], in assay [5] and in [6] was > 100 µM (inactive) each time. Further, the GI50 in assay [7], in assay [8], in assay [9], in assay [10], in [11] and in assay [12] was > 100 µM (inactive) throughout. Besides, the GI50 is > 100 µM (inactive) in assay [13]; > 100 µM (inactive) in assay [14]; > 100 µM (inactive) in assay [15]; > 100 µM (inactive) in [16]; < 0.01 µM (active) in assay [17]; > 100 µM (inactive) in assay [18]. In addition, the GI50 in assay [19] was > 100 µM (inactive).
Turning to `COc1ccc(C2c3cc4c(cc3OC(NNC(N)=O)C2C)OCO4)cc1` (stereo not given), the GI50 in assay [1] was 2.87 µM (inactive); in [2], 16.5 µM (inactive); in [3] it was 6.59 µM (inactive); in assay [4], 11.2 µM (inactive); in assay [5], 7.5 µM (inactive); in assay [6], 26.6 µM (inactive). For the same compound, the GI50 in assay [7] is 1.16 µM (inactive); in assay [8] it was 3.85 µM (inactive); in assay [9], 6.41 µM (inactive); in assay [10], 3.3 µM (inactive); in assay [11], 6.22 µM (inactive); in [12] it was 4.7 µM (inactive). Further, the GI50 was 56.4 µM (inactive) in assay [13]; 4.39 µM (inactive) in [14]; 7.16 µM (inactive) in [15]; 4.95 µM (inactive) in assay [16]; 2.2 µM (inactive) in assay [17]; 6.92 µM (inactive) in assay [18]. Moreover, in [19], the GI50 was 5.83 µM (inactive).
Turning to `CCCCCOC(=O)C(=O)Nc1[nH]nnc1C(N)=O`, the GI50 in [1], in [2], in [3], in assay [4], in assay [5] and in assay [6] was > 100 µM (inactive) each time. Moreover, the GI50 in [7], in assay [8], in [9], in assay [10], in assay [11] and in assay [12] was > 100 µM (inactive) each time. Besides, the GI50 in [13], in [14], in assay [15], in assay [16], in [17] and in assay [18] was > 100 µM (inactive) throughout. Moreover, the GI50 in assay [19] is > 100 µM (inactive).
`N=c1oc2ccc([N+](=O)[O-])cc2cc1C(=O)Nc1ccccn1`: the GI50 in assay [1] is > 100 µM (inactive); in assay [2], 71.9 µM (inactive); in assay [3] it was 31.7 µM (inactive); in assay [4], 34.8 µM (inactive); in [5], 97.3 µM (inactive); in assay [6] it was > 100 µM (inactive). The GI50 is 26.2 µM (inactive) in assay [7]; 20.6 µM (inactive) in [8]; 36.8 µM (inactive) in [9]; 49.8 µM (inactive) in assay [10]; 60.1 µM (inactive) in [11]; 32.4 µM (inactive) in assay [12]. For the same compound, the GI50 in assay [13] is 90.8 µM (inactive); in assay [14], 33.5 µM (inactive); in assay [15] it was 72.6 µM (inactive); in assay [16] it was 45.5 µM (inactive); in [17], 49.4 µM (inactive); in assay [18], 31.2 µM (inactive). The GI50 in assay [19] is 34.2 µM (inactive).
Regarding `O=S(=O)(CCCCl)SCCCCl`, the GI50 is > 55.6 µM (inactive) in assay [1]; 25 µM (inactive) in assay [2]; 37.5 µM (inactive) in assay [3]; 26.7 µM (inactive) in assay [4]; 31.9 µM (inactive) in assay [5]; > 64 µM (inactive) in assay [6]. Also, the GI50 in [7] was 19.4 µM (inactive); in assay [8] it was 31.1 µM (inactive); in assay [9] it was 21.5 µM (inactive); in [10], 25.9 µM (inactive); in [11] it was 33 µM (inactive); in assay [12], 20.9 µM (inactive). Besides, the GI50 was 15.3 µM (inactive) in [13]; 19.2 µM (inactive) in [14]; 25.1 µM (inactive) in assay [15]; 45.9 µM (inactive) in [16]; 9.91 µM (inactive) in assay [17]; 30.3 µM (inactive) in [18]. Moreover, the GI50 in [19] was 36.1 µM (inactive).
As for `CCCCC(=O)NC1(c2cc3ccccc3s2)CCCCC1`, the GI50 in assay [1], in assay [2], in assay [3], in assay [4], in assay [5] and in assay [6] was > 100 µM (inactive) throughout. In addition, the GI50 in [7] is 33.2 µM (inactive); in [8] it was > 100 µM (inactive); in [9], > 100 µM (inactive); in assay [10] it was > 100 µM (inactive); in assay [11], > 100 µM (inactive); in assay [12], > 100 µM (inactive). Further, the GI50 in assay [13] is > 100 µM (inactive); in assay [14], > 100 µM (inactive); in assay [15], > 100 µM (inactive); in assay [16] it was > 100 µM (inactive); in assay [17], 4.89 µM (inactive); in assay [18] it was > 100 µM (inactive). Further, the GI50 in assay [19] is 62.1 µM (inactive).
With `O=C1[C@@H]2[C@@H](c3ccccc3)[C@]2(Cl)C(=O)[C@H]2[C@H](c3ccccc3)[C@@]12Cl`, the GI50 in assay [1], in assay [2], in assay [3], in assay [4], in assay [5] and in assay [6] was > 100 µM (inactive) in each case. Also, the GI50 in assay [7], in assay [8], in [9], in assay [10], in [11] and in assay [12] was > 100 µM (inactive) in each case. Moreover, the GI50 in assay [13], in [14], in assay [15], in assay [16], in assay [17] and in assay [18] was > 100 µM (inactive) in each case. Besides, the GI50 in assay [19] is > 100 µM (inactive).
Take `CC12CCC(C(=O)O1)C(C)(C)O2` (stereo not given): the GI50 in [1], in [2], in [3], in assay [4], in assay [5] and in assay [6] was > 100 µM (inactive) each time. Besides, the GI50 in assay [7], in assay [8], in [9], in assay [10], in assay [11] and in assay [12] was > 100 µM (inactive) each time. Also, the GI50 in assay [13], in [14], in assay [15], in assay [16], in assay [17] and in [18] was > 100 µM (inactive) each time. The GI50 in assay [19] is > 100 µM (inactive).
In the case of `Cc1nn(-c2ccccc2)c2c1C(c1ccc(Cl)cc1)NC(=S)N2` (stereo not given), the GI50 is 23.1 µM (inactive) in [1]; 7.18 µM (inactive) in assay [2]; 12.6 µM (inactive) in [3]; 25.8 µM (inactive) in [4]; 24.3 µM (inactive) in [5]; 27.5 µM (inactive) in assay [6]. The GI50 in assay [7] was 18.5 µM (inactive); in assay [8] it was 32.4 µM (inactive); in assay [9] it was 21.9 µM (inactive); in assay [10], 30.5 µM (inactive); in [11], 48.5 µM (inactive); in assay [12], 20 µM (inactive). The GI50 was 54.5 µM (inactive) in assay [13]; 16.3 µM (inactive) in [14]; 19.1 µM (inactive) in [15]; 19.5 µM (inactive) in assay [16]; 31.9 µM (inactive) in [17]; 15.7 µM (inactive) in [18]. Moreover, in assay [19], the GI50 is 22.3 µM (inactive).
As to `Cc1cc(/N=N/c2c(O)ccc3ccccc23)ccc1/N=N/c1cccc([N+](C)(C)C)c1`, the GI50 was 44.7 µM (inactive) in assay [1]; 15.6 µM (inactive) in [2]; 2.87 µM (inactive) in [3]; 10.7 µM (inactive) in [4]; 74.1 µM (inactive) in [5]; 17.7 µM (inactive) in assay [6]. Besides, the GI50 in assay [7] is 5.71 µM (inactive); in assay [8], 5.21 µM (inactive); in [9], 13.6 µM (inactive); in [10], 3.66 µM (inactive); in assay [11] it was 4 µM (inactive); in [12], 9.82 µM (inactive). For the same compound, the GI50 in assay [13] is > 27.1 µM (inactive); in assay [14], 4.56 µM (inactive); in assay [15], 7.11 µM (inactive); in assay [16], 1.58 µM (inactive); in assay [17] it was 2.38 µM (inactive); in assay [18] it was 16.1 µM (inactive). Moreover, the GI50 in assay [19] is 14.7 µM (inactive).
